US20200246465A1, “USE OF TRYPTOPHAN DERIVATIVES FOR PROTEIN FORMULATIONS” (Genentech, Inc., priority 2015, published 2020)
“And” between values parts separate entries of the source, which are not always exact repeats. Equal values may be shown once.

Key:
Format in all cases: physicochemical
[1] = Thermal stress of NAT in formulation buffer, RP-HPLC at 240 nm; conditions: elevated temperature (40° C., 5 months), His buffer, 1.0 mM NAT
Method: Histidine and non-histidine buffers containing 1.0 mM NAT were aliquoted into sterile glass vials (5 ml/vial, 6 vials per buffer). Vials were stored in a dark box at the indicated temperatures during the stress and transferred to −70° C. for storage until analysis (timepoints taken monthly for five months). Initial time points for samples of each buffer solution were transferred immediately to −70° C. Prior to analysis, the samples were thawed and diluted with Milli-Q H2O to a final NAT concentration of 0.2 mM.
NAT and NAT degradants were separated on an Agilent 1200 series HPLC or Waters H Class UPLC using an Agilent ZORBAX SB-C18 3.5 μm, 4.6×75 mm reverse phase column. Column temperature was held at 30±0.8° C. by a thermostat controller. The gradients used for HPLC and UPLC are listed in Tables 5 and 6, respectively (note: the shorter gradient on the UPLC was designed to accommodate earlier retention times and the column re-equilibration period was elongated due to the larger range of system pressure at a flow rate of 1.0 ml/min). NAT degradation products were detected at 240 nm. The standard bandwidth setting (8 nm for Agilent 1200 HPLC, 4.8 nm for Waters H-Class) was used for analysis on each instrument. The autosampler was maintained at 5±3° C. […]
Total NAT degradation for each sample was calculated by comparing NAT peak area to the control sample for each stress model (Table 7). […]

[2] = ICH light stress of NAT in formulation buffer, RP-HPLC at 240 nm; conditions: for % NAT degradation ± 1SD: ICH light stress (1.2 million lux-hours, 200 W-hours/m^2 UV, 24 hours), 0.3 mM NAT
Method: A light box [Atlas SunTEST CPS+ Xenon Light Box (Chicago, Ill.)] designed to conduct the drug substance/product photostability test recommended by the International Conference on Harmonization (ICH) Expert Working Group was utilized to provide light stress to NAT-containing samples. The ICH photostability test is defined as 1.2 million lux-hours of white light and 200 W-hours/m^2 of UV light; the light box was programmed to provide the stress over a period of 24 hours. Histidine and non-histidine buffers containing 0.3 mM NAT ±5 mM L-Met were aliquoted into sterile glass vials (1 ml/vial). The vials were capped and placed on their side in the light box to maximize exposure to the light source. A control sample for each buffer condition was covered in foil and placed in the light box for the duration of exposure. For consistency with the other stress models, prior to HPLC analysis, the buffer solutions were diluted with Milli-Q H2O to a final NAT concentration of 0.2 mM.
NAT and NAT degradants were separated on an Agilent 1200 series HPLC or Waters H Class UPLC using an Agilent ZORBAX SB-C18 3.5 μm, 4.6×75 mm reverse phase column. Column temperature was held at 30±0.8° C. by a thermostat controller. The gradients used for HPLC and UPLC are listed in Tables 5 and 6, respectively (note: the shorter gradient on the UPLC was designed to accommodate earlier retention times and the column re-equilibration period was elongated due to the larger range of system pressure at a flow rate of 1.0 ml/min). NAT degradation products were detected at 240 nm. The standard bandwidth setting (8 nm for Agilent 1200 HPLC, 4.8 nm for Waters H-Class) was used for analysis on each instrument. The autosampler was maintained at 5±3° C. 10 nmol of NAT and/or NAT degradants (50 μl for most samples) was injected on to the column for analysis. The chromatograms were processed using Dionex Chromeleon software.
Total NAT degradation for each sample was calculated by comparing NAT peak area to the control sample for each stress model (Table 7). NAT degradation ranged from 3% (thermal stress, non-His buffer) to 83% (ICH light stress, His buffer).

[3] = Real time stability of NAT in drug product formulations
Method: NAT and NAT degradants were separated on an Agilent 1200 series HPLC or Waters H Class UPLC using an Agilent ZORBAX SB-C18 3.5 μm, 4.6×75 mm reverse phase column. Column temperature was held at 30±0.8° C. by a thermostat controller. The gradients used for HPLC and UPLC are listed in Tables 5 and 6, respectively (note: the shorter gradient on the UPLC was designed to accommodate earlier retention times and the column re-equilibration period was elongated due to the larger range of system pressure at a flow rate of 1.0 ml/min). NAT degradation products were detected at 240 nm. The standard bandwidth setting (8 nm for Agilent 1200 HPLC, 4.8 nm for Waters H-Class) was used for analysis on each instrument. The autosampler was maintained at 5±3° C. 10 nmol of NAT and/or NAT degradants (50 μl for most samples) was injected on to the column for analysis. The chromatograms were processed using Dionex Chromeleon software. Protein-containing samples were diluted in guanidine and the proteins removed via ultra-filtration (Amicon spin filters with a 30 kDa molecular weight cut-off). […] Using the final sample preparation conditions, recovery of NAT was 94-99% for three tested antibody/antibody derivatives and recovery of NAT degradants was 98-100% (data not shown). With this model experience in hand, the amount of NAT oxidation expected to occur in the manufacturing and storage of mAbs was explored next. FIG. 12 illustrates the comparison of the AAPH model stress system with an antibody at 150 mg/ml (1.0 mM) co-formulated with NAT, Met, and other excipients typical of mAb formulations. Results are shown for the initial time point, at −20° C. and 5° C. for six months (representative of typical storage conditions), and 25° C. for 6 months (representative of accelerated stability conditions). Oxidation levels were negligible directly after manufacturing and under the typical storage conditions tested.

- % NAT degradation ± 1SD [1]: 11.1 (n = 1) %
- % NAT degradation ± 1SD ([2]; His + 5 mM Met buffer): 17.6 ± 0.7 (n = 2) %
- % NAT degradation ± 1SD ([2]; His buffer): 83.4 ± 0.2 (n = 2) %
- % NAT degradation ± 1SD ([2]; Non-His + 5 mM Met buffer): 18 ± 2 (n = 2) %
- % NAT degradation ± 1SD ([2]; Non-His buffer): 28% and 28.0 ± 0.1 (n = 2) %
- improvement to NAT stability by 5 mM Met (total NAT loss) ([2]; ICH light stress conditions): 10-16%
- loss of NAT ([3]; 3 months at 25° C., corresponding vehicle (formulation without protein)): 1%
- NAT loss ([3]; 3 months at 25° C., protein containing sample (antibody 150 mg/ml, NAT, Met, excipients)): 7.5%
- NAT oxidation levels ([3]; directly after manufacturing and at −20° C. and 5° C. for six months, antibody 150 mg/ml co-formulated with NAT, Met): negligible
- total NAT loss ([3]; six months at 25° C., antibody at 150 mg/ml (1.0 mM) co-formulated with NAT, Met and other excipients): 16.8%
- NAT degradation ([3]; vehicle (formulation without protein) at higher temperatures): minimal NAT degradation
SMILES: CC(=O)N[C@@H](Cc1c[nH]c2ccccc12)C(=O)O [NAT, N-acetyl-tryptophan]
